Experimental findings from US12419890B2, “Administration of sumo-activating enzyme inhibitor and checkpoint inhibitors” (Takeda Pharmaceutical Company Limited, priority 2019, dated 2025) are described below.

The subject of test [1] is A20 syngeneic mouse B-cell lymphoma-derived subcutaneous tumor. The experiment in a line: A20 Study 3: mouse A20 syngeneic tumor model, individual tumor volume. Type of test: in vivo. As for the experimental part: A20 Study 3: A20 is a mouse B-cell lymphoma cell line. A20 mouse syngeneic tumor model was generated by subcutaneous inoculation with 1.0×10^6 A20 cells (cell suspension) in 8 weeks old female BALB/c mice (Jackson Laboratory, 600 Main St, Bar Harbor, ME) in the flank. When the mean tumor volume reached approximately 50 mm^3, the animals were randomized into one vehicle control and three treatment groups (n=7/group). Mice were then dosed with 20% HPbCD or Compound I-263a or anti-mouse PD-1 antibody over a 11-day period. Tumor growth and body weight were measured twice per week during the treatment and post-treatment periods, and mice were humanely euthanized once they had reached their humane endpoint.
Study 3: A 1.65 mg/mL stock solution of Compound I-263a was formulated weekly in 20% HPβCD and administered intravenously (IV) based on exact animal body weight on each day of treatment, using a dosing volume of 10 mL/kg body weight. Final doses received were 15 mg/kg. Dosing volume for Compound I-263a was 0.2 mL. […]
Tumors were measured twice weekly using vernier calipers. Tumor volumes were calculated using standard equation: V=W^2×L/2, where V=volume, W=width, and L=length for the tumor. […] Tumor size and body weight were measured twice a week for the duration of the study. […]

For a further test, the target named is T1, SUMO-activating enzyme (Homo sapiens, UniProt Q9UBT2).
T1 sequence (Q9UBT2 1-640): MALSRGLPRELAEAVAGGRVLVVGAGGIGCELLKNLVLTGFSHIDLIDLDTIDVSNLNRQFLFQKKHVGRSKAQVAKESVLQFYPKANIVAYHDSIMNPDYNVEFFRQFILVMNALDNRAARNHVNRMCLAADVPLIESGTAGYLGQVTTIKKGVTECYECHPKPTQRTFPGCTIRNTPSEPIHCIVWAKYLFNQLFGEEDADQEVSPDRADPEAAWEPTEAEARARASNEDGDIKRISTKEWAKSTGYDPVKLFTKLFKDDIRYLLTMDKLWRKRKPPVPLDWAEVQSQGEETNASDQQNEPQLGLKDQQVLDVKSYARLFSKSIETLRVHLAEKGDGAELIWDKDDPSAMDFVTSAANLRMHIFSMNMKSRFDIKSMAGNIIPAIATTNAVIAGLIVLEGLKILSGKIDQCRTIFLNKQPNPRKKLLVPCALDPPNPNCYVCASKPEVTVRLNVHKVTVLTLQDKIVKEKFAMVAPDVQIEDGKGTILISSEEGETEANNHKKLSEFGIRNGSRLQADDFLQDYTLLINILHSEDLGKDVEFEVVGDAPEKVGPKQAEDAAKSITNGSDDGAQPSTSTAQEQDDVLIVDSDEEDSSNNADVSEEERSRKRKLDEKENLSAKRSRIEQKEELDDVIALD
T1 sequence (Q9UBE0 1-346 partner): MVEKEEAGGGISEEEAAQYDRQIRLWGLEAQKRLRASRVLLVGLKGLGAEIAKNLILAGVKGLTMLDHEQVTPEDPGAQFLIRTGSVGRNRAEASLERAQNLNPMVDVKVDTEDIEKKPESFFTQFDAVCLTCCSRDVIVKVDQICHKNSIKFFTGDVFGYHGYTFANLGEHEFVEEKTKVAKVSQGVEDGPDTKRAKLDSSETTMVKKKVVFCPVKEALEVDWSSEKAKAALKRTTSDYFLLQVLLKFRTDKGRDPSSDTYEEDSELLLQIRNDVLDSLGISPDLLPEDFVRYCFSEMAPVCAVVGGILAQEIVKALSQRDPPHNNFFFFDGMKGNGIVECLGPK
The experiment in a line: biochemical assays of SUMO-activating enzyme. An excerpt:
SAE inhibitors, as disclosed herein, are described, for example, in US 2016/0009744 and U.S. Pat. No. 9,695,154. They may be prepared by methods known to one skilled in the art and/or according to the methods described in US 2016/0009744 and U.S. Pat. No. 9,695,154, which is hereby incorporated by reference in its entirety. Central to the mechanism of action of useful SAE inhibitors, such as Compound I-263a, in combinations and methods of the present disclosure is production of type 1 IFNs and induction of an innate immune response with activation of dendritic cells, natural killer (NK) cells and macrophages.

For the compound `Cc1sc(C(=O)c2cncnc2N[C@@H]2C[C@H](COS(N)(=O)=O)[C@@H](O)C2)cc1[C@@H]1NCCc2ccc(Cl)cc21` [Compound I-263a, [(1R,2S,4R)-4-{[5-({4-[(1R)-7-chloro-1,2,3,4-tetrahydroisoquinolin-1-yl]-5-methyl-2-thienyl}carbonyl)pyrimidin-4-yl]amino}-2-hydroxycyclopentyl]methyl sulfamate], the “inhibition of tumor growth” value in test [1] (Compound I-263a 15 mg/kg IV QWx1 (Day 1), 7 tumors/group) is “modest inhibition”. In test [1] (stasis to day 8 of treatment, followed by rapid growth, out of 7 implanted, Compound I-263a 15 mg/kg IV Day 1), the tumors in stasis worked out at 2. The “inhibition of SUMO-activating enzyme activity” value at SUMO-activating enzyme (mechanism-based inhibitor forming a covalent adduct with SUMO) was “potently inhibits enzyme activity”. The “selectivity for SUMO-activating enzyme” value at SUMO-activating enzyme (over ubiquitin-activating enzymes, Nedd8-activating enzyme, and autophagy related 7 enzyme) is on record as “Strong selectivity”.
